Data taken from ChEMBL document CHEMBL4616703, “Benzoxazepine-Derived Selective, Orally Bioavailable Inhibitor of Human Acidic Mammalian Chitinase” (ACS Med Chem Lett, 2020).

Columns and labels:
[1] = AUC (0 to infinity) in Sprague-Dawley rat at 10 mg/kg, po administered as single dose measured after 24 hrs by LC-MS/MS analysis; type: ADME, organism-based; set-up: dose 10 mg/kg, time infinity, route oral; settings: in vivo
Chitotriosidase-1 = Chitotriosidase-1 (Homo sapiens, UniProt Q13231); experiment: Inhibition of full length recombinant C-terminal His-taged human CHIT1 expressed in CHOK1 cells assessed as reduction in chitinolytic activity using 4-methylumbelliferyl-beta-D-N,N',N''-[…] as substrate incubated for 60 mins under shaking condition by microplate fluorometry analysis; set-up: species or system CHO-K1
[2] = target: T1, Voltage-gated inwardly rectifying potassium channel KCNH2 (Homo sapiens, UniProt Q12809); experiment: Displacement of Tracer Red from human ERG by fluorescence polarization assay
[3] = target: Acidic mammalian chitinase (Homo sapiens, UniProt Q9BZP6); experiment: Inhibition of full length recombinant C-terminal His-tagged human acidic mammalian chitinase expressed in CHOK1 cells assessed as reduction in chitinolytic activity using 4-methylumbelliferyl-beta-D-N,N-diacetylchitobioside hydrate as substrate incubated for 60 mins under shaking condition by microplate fluorometry analysis; set-up: species or system CHO-K1
[4] = Cmax in Sprague-Dawley rat at 10 mg/kg, po administered as single dose measured after 24 hrs by LC-MS/MS analysis; type: ADME, organism-based; set-up: dose 10 mg/kg, route oral; settings: in vivo
[5] = Mean residence time in BALB/c mouse at 10 mg/kg, po administered as single dose measured after 24 hrs by LC-MS/MS analysis; type: ADME, organism-based; settings: in vivo
[6] = Cmax in BALB/c mouse at 10 mg/kg, po administered as single dose measured after 24 hrs by LC-MS/MS analysis; type: ADME, organism-based; set-up: dose 10 mg/kg, route oral; settings: in vivo
[7] = Half life in Sprague-Dawley rat at 10 mg/kg, po administered as single dose measured after 24 hrs by LC-MS/MS analysis; type: ADME, organism-based; settings: in vivo
[8] = target: T1, Voltage-gated inwardly rectifying potassium channel KCNH2; experiment: Inhibition of human ERG expressed in CHO-K1 cells by automated Qpatch-clamp assay; type: cell-based
[9] = Mean residence time in Sprague-Dawley rat at 10 mg/kg, po administered as single dose measured after 24 hrs by LC-MS/MS analysis; type: ADME, organism-based; settings: in vivo
[10] = Cmax in BALB/c mouse at 3 mg/kg, iv administered as single bolus dose measured after 24 hrs by LC-MS/MS analysis; type: ADME, organism-based; set-up: dose 3 mg/kg, route intravenous; settings: in vivo
[11] = AUC (0 to infinity) in BALB/c mouse at 3 mg/kg, iv administered as single dose measured after 24 hrs by LC-MS/MS analysis; type: ADME, organism-based; set-up: dose 3 mg/kg, route intravenous, time infinity; settings: in vivo
[12] = AUC (0 to infinity) in BALB/c mouse at 10 mg/kg, po administered as single dose measured after 24 hrs by LC-MS/MS analysis; type: ADME, organism-based; set-up: dose 10 mg/kg, route oral, time infinity; settings: in vivo
[13] = AUC(0 to infinity) in Sprague-Dawley rat at 10 mg/kg, po administered as single dose measured after 24 hrs by LC-MS/MS analysis; type: ADME, organism-based; set-up: dose 10 mg/kg, route oral, time infinity; settings: in vivo
[14] = Oral bioavailability in BALB/c mouse at 10 mg/kg administered as single dose measured after 24 hrs by LC-MS/MS analysis; type: ADME, organism-based; settings: in vivo
[15] = Tmax in BALB/c mouse at 10 mg/kg, po administered as single dose measured after 24 hrs by LC-MS/MS analysis; type: ADME, organism-based; settings: in vivo
[16] = Half life in BALB/c mouse at 3 mg/kg, iv administered as single bolus dose measured after 24 hrs by LC-MS/MS analysis; type: ADME, organism-based; settings: in vivo
[17] = Volume of distribution at steady state in BALB/c mouse at 3 mg/kg, iv administered as single bolus dose measured after 24 hrs by LC-MS/MS analysis; type: ADME, organism-based; settings: in vivo, read-out: Vdss
[18] = Mean residence time in BALB/c mouse at 3 mg/kg, iv administered as single bolus dose measured after 24 hrs by LC-MS/MS analysis; type: ADME, organism-based; settings: in vivo
[19] = Clearance in BALB/c mouse at 3 mg/kg, iv administered as single bolus dose measured after 24 hrs by LC-MS/MS analysis; type: ADME, organism-based; settings: in vivo
[20] = Tmax in Sprague-Dawley rat at 10 mg/kg, po administered as single dose measured after 24 hrs by LC-MS/MS analysis; type: ADME, organism-based; settings: in vivo
[21] = Half life in BALB/c mouse at 10 mg/kg, po administered as single dose measured after 24 hrs by LC-MS/MS analysis; type: ADME, organism-based; settings: in vivo

Chain of Acidic mammalian chitinase (Q9BZP6 whole entry): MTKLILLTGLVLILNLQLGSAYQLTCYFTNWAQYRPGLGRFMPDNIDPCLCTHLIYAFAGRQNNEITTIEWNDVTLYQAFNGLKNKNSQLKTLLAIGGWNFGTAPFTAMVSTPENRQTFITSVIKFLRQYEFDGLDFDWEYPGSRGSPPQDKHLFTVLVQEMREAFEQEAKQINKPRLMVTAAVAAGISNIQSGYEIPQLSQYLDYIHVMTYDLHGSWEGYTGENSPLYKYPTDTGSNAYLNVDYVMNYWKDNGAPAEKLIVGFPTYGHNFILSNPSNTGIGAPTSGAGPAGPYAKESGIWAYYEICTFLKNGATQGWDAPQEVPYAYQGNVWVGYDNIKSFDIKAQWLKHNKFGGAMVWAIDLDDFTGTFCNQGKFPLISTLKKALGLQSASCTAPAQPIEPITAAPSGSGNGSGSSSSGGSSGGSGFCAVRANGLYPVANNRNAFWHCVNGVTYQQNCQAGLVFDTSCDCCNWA
Chain of Chitotriosidase-1 (Q13231 whole entry): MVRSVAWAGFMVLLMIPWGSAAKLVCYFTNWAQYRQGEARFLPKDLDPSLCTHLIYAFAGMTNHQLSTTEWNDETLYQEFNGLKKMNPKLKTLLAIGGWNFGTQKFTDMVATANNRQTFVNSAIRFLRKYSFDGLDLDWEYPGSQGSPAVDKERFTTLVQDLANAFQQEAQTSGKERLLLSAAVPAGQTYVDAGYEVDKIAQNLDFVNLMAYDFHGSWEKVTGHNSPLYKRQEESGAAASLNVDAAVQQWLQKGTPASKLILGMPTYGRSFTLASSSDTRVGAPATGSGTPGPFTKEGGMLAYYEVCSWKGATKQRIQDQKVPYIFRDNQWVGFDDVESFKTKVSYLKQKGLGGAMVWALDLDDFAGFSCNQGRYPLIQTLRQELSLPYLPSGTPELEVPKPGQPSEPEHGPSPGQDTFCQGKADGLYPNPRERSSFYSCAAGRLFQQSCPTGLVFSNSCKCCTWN
T1 sequence (Q12809 whole entry): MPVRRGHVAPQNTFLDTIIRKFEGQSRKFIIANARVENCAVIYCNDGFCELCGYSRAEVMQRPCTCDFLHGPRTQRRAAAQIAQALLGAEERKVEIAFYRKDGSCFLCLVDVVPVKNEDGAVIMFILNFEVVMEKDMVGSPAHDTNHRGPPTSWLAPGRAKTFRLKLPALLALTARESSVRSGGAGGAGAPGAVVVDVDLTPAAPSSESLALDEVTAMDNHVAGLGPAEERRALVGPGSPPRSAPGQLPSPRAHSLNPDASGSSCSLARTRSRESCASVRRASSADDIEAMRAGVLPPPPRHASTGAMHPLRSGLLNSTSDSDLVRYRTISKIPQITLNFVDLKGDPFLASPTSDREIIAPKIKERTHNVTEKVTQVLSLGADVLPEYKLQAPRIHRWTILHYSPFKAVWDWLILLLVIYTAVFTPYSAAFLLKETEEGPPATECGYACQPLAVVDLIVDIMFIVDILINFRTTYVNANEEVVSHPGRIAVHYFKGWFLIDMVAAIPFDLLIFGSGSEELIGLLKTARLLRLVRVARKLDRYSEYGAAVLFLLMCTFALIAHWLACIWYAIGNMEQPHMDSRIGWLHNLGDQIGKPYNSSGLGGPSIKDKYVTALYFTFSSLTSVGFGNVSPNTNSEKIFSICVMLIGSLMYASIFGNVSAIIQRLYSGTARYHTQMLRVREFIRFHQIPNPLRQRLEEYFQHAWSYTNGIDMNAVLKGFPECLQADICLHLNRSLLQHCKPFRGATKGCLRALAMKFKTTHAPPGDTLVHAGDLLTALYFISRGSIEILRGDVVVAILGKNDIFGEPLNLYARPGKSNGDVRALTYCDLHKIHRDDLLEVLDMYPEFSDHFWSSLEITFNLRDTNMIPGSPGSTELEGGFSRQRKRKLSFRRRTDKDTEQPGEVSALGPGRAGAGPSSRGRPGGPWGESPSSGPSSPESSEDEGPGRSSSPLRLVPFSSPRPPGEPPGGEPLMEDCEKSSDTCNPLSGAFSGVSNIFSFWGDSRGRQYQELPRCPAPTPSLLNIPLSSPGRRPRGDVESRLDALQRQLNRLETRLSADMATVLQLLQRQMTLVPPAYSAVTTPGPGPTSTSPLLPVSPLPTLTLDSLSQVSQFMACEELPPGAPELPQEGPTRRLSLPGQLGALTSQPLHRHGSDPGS

| SMILES | AUC(0-inf) [1] [ng·h/mL] | IC50 (Chitotriosidase-1) [nM] | IC50 [3] [nM] | IC50 [2] [nM] | also measured |
| --- | --- | --- | --- | --- | --- |
| CC(C)CN(CCc1ccc(Cl)cc1)C1CCN(c2nc(N)n[nH]2)CC1 | 90 | 229 |  |  |  |
| Nc1n[nH]c(N2CCC(N(CCc3ccc(Cl)cc3)Cc3ccccc3)CC2)n1 |  | 122 |  |  |  |
| Nc1n[nH]c(N2CCC(N(CCc3ccc(Cl)cc3)Cc3ccccc3Cl)CC2)n1 | 1400 | 104 |  | 2000 |  |
| Nc1nc(N2CCC(N(CCc3ccc(Cl)cc3)Cc3ccc(F)cc3Cl)CC2)n[nH]1 | 7500 | 200 | 5 |  | Cmax [4]: 690 ng/mL |
| Nc1nc(N2CCC(N(CCc3ccc(Cl)cc3)Cc3cccc(O)c3)CC2)n[nH]1 |  | 79 | 2 | 150 |  |
| Nc1nc(N2CCC(N(CCc3ccc(Cl)cc3)Cc3ccncc3Cl)CC2)n[nH]1 | 430 | 620 | 15 | 6400 | Cmax [4]: 130 ng/mL |
| Nc1nc(N2CCC(N(CCc3ccc(Cl)cc3)Cc3ccccc3O)CC2)n[nH]1 |  | 49 | 2 | 100 |  |
| CN(C1CCN(c2n[nH]c(N)n2)CC1)[C@H](COc1ccc(Cl)cc1)Cc1ccc(Cl)cc1 |  | 16000 | 580 |  |  |
| Nc1nc(N2CCC(N(CCc3ccc(Cl)cc3)Cc3cccc(C(F)(F)F)c3)CC2)n[nH]1 | 13700 | 310 | 12 | 2700 | Cmax [4]: 1600 ng/mL |
| Nc1nc(N2CCC(N(Cc3ccccc3)[C@H](CO)Cc3ccc(Cl)cc3)CC2)n[nH]1 |  | 18000 | 245 | 2900 |  |
| Nc1nc(N2CCC(N(CCc3ccc(Cl)cc3)Cc3cc(F)ccc3F)CC2)n[nH]1 | 2400 | 277 | 5 |  | Cmax [4]: 600 ng/mL |
| Nc1nc(N2CCC(N(CCc3ccc(Cl)cc3)Cc3ccc(Cl)cc3)CC2)n[nH]1 | 7000 | 90 | 4 | 400 |  |
| N#Cc1ccc2c(c1)CN(C1CCN(c3n[nH]c(N)n3)CC1)[C@@H](Cc1ccc(Cl)cc1)CO2 |  | 7300 | 49 | 23000 |  |
| Nc1nc(N2CCC(N3Cc4cnccc4OC[C@@H]3Cc3ccc(Cl)cc3)CC2)n[nH]1 |  | 18000 | 290 | 17000 |  |
| Nc1nc(N2CCC(N3Cc4cccnc4OC[C@@H]3Cc3ccc(Cl)cc3)CC2)n[nH]1 |  | 2400 | 30 | > 50000 |  |
| Nc1nc(N2CCC(N(CCc3ccc(Cl)cc3)Cc3cccc(Cl)c3)CC2)n[nH]1 | 7800 | 176 | 6 | 3700 | Cmax [4]: 780 ng/mL |

The next lines start with results.

| AUC(0-inf) [1] [ng·h/mL] | IC50 (Chitotriosidase-1) [nM] | IC50 [3] [nM] | SMILES | IC50 [2] [nM] | also measured |
| --- | --- | --- | --- | --- | --- |
|  | 275 | 1.4 | CN1C[C@H](Cc2ccc(Cl)cc2)N(C2CCN(c3nnc(N)[nH]3)CC2)Cc2ccccc21 | 3200 |  |
|  | > 20000 | 68 | Nc1nnc(N2CCC(N3Cc4cc(Cl)cc(Cl)c4OC[C@@H]3Cc3ccc(Cl)cc3)CC2)[nH]1 | 6000 |  |
|  | 2300 | 8 | Nc1nnc(N2CCC(N3Cc4cc(Cl)ccc4OC[C@@H]3Cc3ccc(Cl)cc3)CC2)[nH]1 | 6700 |  |
|  | 915 | 7 | Nc1nnc(N2CCC(N3Cc4ccccc4OC[C@@H]3Cc3ccc(Cl)cc3)CC2)[nH]1 | 22000 | MRT [5]: 50.4 min; Cmax [6]: 3100 ng/mL; half-life [7]: 252 min; IC50 [8]: 23000 nM; MRT [9]: 252 min; Cmax [10]: 9500 ng/mL; AUC(0-inf) [11]: 2900 ng·h/mL; AUC(0-inf) [12]: 3900 ng·h/mL; AUC(0-inf) [13]: 22500 ng·h/mL; bioavailability [14]: 41%; Tmax [15]: 30 min; half-life [16]: 84 min; Cmax [4]: 3400 ng/mL; Vd [17]: 0.35 L/kg; MRT [18]: 20.4 min; clearance [19]: 16.7 mL/min/kg; Tmax [20]: 30 min; half-life [21]: 66 min |
|  | 420 | 0.7 | CN1C[C@H](Cc2ccc(Cl)cc2)N(C2CCN(c3nnc(N)[nH]3)CC2)Cc2cc(Cl)ccc21 | 800 |  |
|  | 350 | 12 | C=C1COC[C@H](Cc2ccc(Cl)cc2)N(C2CCN(c3nnc(N)[nH]3)CC2)C1 |  |  |
|  | 4400 | 55 | Nc1nnc(N2CCC(N3Cc4ccncc4OC[C@@H]3Cc3ccc(Cl)cc3)CC2)[nH]1 | 50000 |  |
|  | 930 | 7 | Nc1nnc(N2CCC(N3Cc4cc(F)ccc4OC[C@@H]3Cc3ccc(Cl)cc3)CC2)[nH]1 |  |  |
